The first assay relates to Spodoptera litura. Kind of assay: Antifeedant activity against larvae of Spodoptera litura in castor leaves relative to control. It is filed as functional.
On to `COC(=O)C[C@H]1[C@]2(C)C3=C(C)[C@H](c4ccoc4)C[C@H]3O[C@@H]2[C@@H]2OC[C@]3(C)[C@H](O)C[C@H](OC(=O)C=C(C)C)[C@@]1(C)[C@@H]23`, for which the AFI is 52.1%.

The test system of a further assay is Spodoptera litura. Nature of the assay: Feeding index against larvae of Spodoptera litura in castor leaves =.
Compound `CC(=O)O[C@@H]1[C@H](O)[C@H]2C(C)(C)C(=O)C=C[C@]2(C)[C@H]2CC[C@@]3(C)[C@H](C45CC(O)OC4O5)C[C@@H]4O[C@@]43[C@]12C` (stereo partly specified) [NIMONOL PP2] came in with a PFI of 15.8%.

Take `CC(=O)O[C@@H]1[C@H](O)[C@H]2C(C)(C)C(=O)C=C[C@]2(C)[C@H]2CC[C@@]3(C)[C@H](C4=CC(O)OC4=O)C[C@@H]4O[C@@]43[C@]12C` (stereo partly specified) [NIMONOLIDE]: the PFI was 21.3%.

With `CC(=O)O[C@@H]1[C@H](O)[C@H]2C(C)(C)C(=O)C=C[C@]2(C)[C@H]2CC[C@]3(C)C(=CC[C@H]3c3ccoc3)[C@]12C` [NIMONOL], the PFI came to 47.3%.

The compound `C/C=C(\C)C(=O)O[C@H]1C[C@@H](OC(C)=O)[C@@]2(C)CO[C@H]3[C@H]4O[C@@H]5CC(C6=CC(=O)OC6O)=C(C)C5[C@@]4(C)[C@H](CC(=O)OC)[C@]1(C)[C@@H]32` (stereo partly specified) [SALANNIN PP1] displayed a PFI of 29.1%.

As for `C/C=C(\C)C(=O)O[C@H]1C[C@@H](OC(C)=O)[C@@]2(C)CO[C@H]3[C@H]4O[C@@H]5C[C@@H](C6=CC(=O)OC6O)C(C)=C5[C@@]4(C)[C@H](CC(=O)OC)[C@]1(C)[C@@H]32` (stereo partly specified) [SALANNIN PP], the PFI came to 25.1%.

With `C/C=C(/C)C(=O)O[C@H]1C[C@@H](OC(C)=O)[C@@]2(C)CO[C@H]3[C@H]4O[C@@H]5C[C@@H](c6ccoc6)C(C)=C5[C@@]4(C)[C@H](CC(=O)OC)[C@]1(C)[C@@H]32` [SALANNIN], the PFI amounted to 36.3%.

With `C/C=C(\C)C(=O)O[C@H]1C[C@@H](OC(C)=O)[C@@]2(C)CO[C@H]3[C@H]4O[C@@H]5C[C@@H](C6=CCOC6=O)C(C)=C5[C@@]4(C)[C@H](CC(=O)OC)[C@]1(C)[C@@H]32` [SALANNOBUTYROLACTONE], the PFI is 46.3%.

For `C/C=C(\C)C(=O)O[C@H]1C[C@@H](OC(C)=O)[C@@]2(C)CO[C@H]3[C@H]4O[C@@H]5C[C@@H](C6=CC(O)OC6=O)C(C)=C5[C@@]4(C)[C@H](CC(=O)OC)[C@]1(C)[C@@H]32` (stereo partly specified) [SALANNOLIDE], the PFI is listed as 26.3%.

`C/C=C(\C)C(=O)O[C@@H]1[C@@H]2C=C3[C@@H]4CC(=O)O[C@@H](C5=CC(O)OC5=O)[C@]4(C)CC[C@@H]3[C@@](C)(C2=O)[C@@H]([C@@H](O)C(=O)OC)C1(C)C` (stereo partly specified) [SWIETENINE PP] registered a PFI of 40.2%.

Consider `C/C=C(\C)C(=O)O[C@@H]1[C@@H]2C=C3[C@@H]4CC(=O)O[C@@H](c5ccoc5)[C@]4(C)CC[C@@H]3[C@@](C)(C2=O)[C@@H]([C@@H](O)C(=O)OC)C1(C)C` [SWIETENINE], for which the PFI is 49.1%.

For the origin of these results see ChEMBL document CHEMBL3045786, “Insect antifeedant activity of tetranortriterpenoids from the Rutales. A perusal of structural relations” (2002).
